Experimental data as given in patent US11051777B2, “Imaging neurological disease” (GE Healthcare Limited, priority 2013, dated 2021).
“And” between values parts separate entries of the source, which are not always exact repeats. Equal entries are not always repeated.

Experiments:
Format in all cases: in vivo
dopamine transporter [1] = target: T1, dopamine transporter (Homo sapiens, UniProt Q01959); test: Striatum right:left ratio from DaTSCAN SBR data of normal subjects, ENCDAT database
T1 construct: from tissue; host or cells: striatum of living normal human subjects (in vivo SPECT imaging, ENCDAT and PPMI databases)
T1 sequence (Q01959 whole entry): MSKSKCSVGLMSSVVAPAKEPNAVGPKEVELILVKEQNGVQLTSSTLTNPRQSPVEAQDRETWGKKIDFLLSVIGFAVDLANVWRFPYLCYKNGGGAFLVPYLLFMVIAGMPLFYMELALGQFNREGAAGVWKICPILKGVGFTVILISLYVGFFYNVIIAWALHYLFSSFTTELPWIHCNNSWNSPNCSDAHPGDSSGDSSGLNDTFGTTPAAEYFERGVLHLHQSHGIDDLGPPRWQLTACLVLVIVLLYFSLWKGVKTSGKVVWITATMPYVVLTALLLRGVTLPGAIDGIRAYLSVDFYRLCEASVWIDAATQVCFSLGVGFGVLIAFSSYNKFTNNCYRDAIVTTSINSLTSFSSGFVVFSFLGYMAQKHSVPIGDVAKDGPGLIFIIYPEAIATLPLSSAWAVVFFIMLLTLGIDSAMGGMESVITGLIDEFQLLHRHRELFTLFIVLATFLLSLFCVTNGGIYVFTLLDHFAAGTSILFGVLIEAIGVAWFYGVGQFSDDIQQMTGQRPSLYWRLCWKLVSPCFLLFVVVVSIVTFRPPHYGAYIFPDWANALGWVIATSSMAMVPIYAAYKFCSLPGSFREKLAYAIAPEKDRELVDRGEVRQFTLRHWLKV
Text: Using the method of the present invention, the data from Example 1 was used to calculate a striatum right:left ratio:
Table 3 below uses SBR data for normal subjects from the ENC DAT database. Three subjects from each of five different sites are shown, but the overall average is based on data from 11 sites: […]

dopamine transporter [2] = target: T1, dopamine transporter; test: Patient classification from Datscan clinical trial data using SBR plus L/R asymmetry, versus clinical diagnosis
Description: The 104 patient data set from Example 4 was analysed using SBR together with the L/R asymmetry of the present invention.

dopamine transporter [3] = target: T1, dopamine transporter; test: Normal database (PPMI, ENCDAT) DaTSCAN scans, SBR method averaged per decade of life; conditions: normal subjects
Description: Two databases of scans of DaTSCAN™ (GE Healthcare Ltd) normal human subjects were evaluated using: • (i) the SBR method of the prior art (see Example 1), with the occipital cortex as the reference region; • (ii) the L/R ratio method of the present invention. The PPMI database was of 122 subjects (age range 31-84; 62% male 38% female). The ENCDAT database was of 122 subjects (age range 20-82; 52% male 48% female). The data from all subjects in each decade of life (20 s, 30 s etc) were averaged.

dopamine transporter [4] = target: T1, dopamine transporter; test: Patient classification from Datscan clinical trial data using SBR only, versus clinical diagnosis
Description: The data from two GE Healthcare Ltd clinical trials of Datscan™: • (i) comparing PD and ET; • (ii) clinically uncertain PD; 104 patients in total were analysed using SBR calculation only. Each determination was compared with the patient determination based on clinical symptoms.
This gives a sensitivity of 71%, specificity of 96% and accuracy of 82% for the SBR technique. The clinical diagnosis was assumed to be the ‘true’ diagnosis, and sensitivity and specificity can then be calculated. Sensitivity=100×True Positives/(True Positives+False Negatives)=100×42/59=71%. Specificity=100×True Negatives/(True Negatives+False Positives)=100×43/45=96%. Accuracy=100×(True Positives+True Negatives)/Population=100×(42+43)/104=82%.

dopamine transporter [5] = target: T1, dopamine transporter; test: Striatal binding ratio (SBR) from DaTSCAN images of normal subjects, ENCDAT database; conditions: mean ±1 SD
Description: The European Association of Nuclear Medicine RESEARCH4LIFE© initiative (“EARL”) has been compiling a database of DaTSCAN images of normal human subjects since 2007 (see http://earl.eanm.org/cms/website.php?id=/en/projects/enc-dat.htm). The ENCDAT database includes 150 normal subjects—with data from a range of camera types. SBR was calculated for the 150 normal subjects (Group A):
[formula] • where: • SBR=specific binding ratio or striatum binding ratio, • ROI=region of interest. Brain imaging data for n=37 normal subjects acquired on GE cameras in the ENCDAT database was used for the calculation of SBR (Group B). SBR for an illustrative patient from the ENCDAT database is also shown: […]

[6] = WHOLE mean, overall average of 11 sites
[7] = individual normal subjects, three per site, sites 1-5
[8] = 104 patients, SBR with L/R asymmetry
[9] = SBR plus asymmetry, clinical diagnosis as truth
[10] = SBR technique, clinical diagnosis as truth
[11] = Normal A: 150 normal subjects, range of camera types
[12] = Normal B: n=37 normal subjects, GE cameras

Q: With `COC(=O)[C@H]1[C@@H](c2ccc([123I])cc2)C[C@@H]2CC[C@H]1N2CCCF` [DaTSCAN, ^123I-ioflupane] as the compound, how does the “SBR left, normal range” value (dopamine transporter [1]; Normal range (+/-1 SD)) read?
A: The value was 1.79-3.05.

Q: And the “SBR right, normal range” value (dopamine transporter [1]; Normal range (+/-1 SD))?
A: The value was 1.78-3.04.

Q: What about the “Striatum Right:left, normal range” value (dopamine transporter [1]; Normal range (+/-1 SD)) of the same compound?
A: Its value is 0.96-1.04.

Q: What about the “Striatum Right:left” value (dopamine transporter [1]; Normal subjects, mean +/-1 SD) of the same compound?
A: The value was 1.00 +/− 0.04.

Q: And the “Anterior putamen R:L ratio” value (dopamine transporter [1]; [6])?
A: The value was 1.00.

Q: And the “Caudate R:L ratio” value (dopamine transporter [1]; [6])?
A: Its value is 0.99.

Q: And the “Posterior Putamen R:L ratio” value (dopamine transporter [1]; [6])?
A: Its value is 1.01.

Q: And the “Putamen R:L ratio” value (dopamine transporter [1]; [6])?
A: Its value is 1.01.

Q: And the “SBR Striatum L” value (dopamine transporter [1]; [6])?
A: The value was 2.88.

Q: And the “SBR Striatum R” value (dopamine transporter [1]; [6])?
A: The value was 2.88.

Q: And the “Striatum R:L ratio” value (dopamine transporter [1]; [6])?
A: The value was 1.00.

Q: What about the “Anterior putamen R:L ratio” value (dopamine transporter [1]; [7]) of the same compound?
A: The value was 1.03 (2×) and 1.00 (4×) and 0.91 and 0.98 and 0.97 and 1.01 (3×) and 1.06 and 0.99 and 0.96.

Q: What about the “Caudate R:L ratio” value (dopamine transporter [1]; [7]) of the same compound?
A: The value was 0.98 and 1.02 and 0.97 and 1.05 (3×) and 0.89 and 1.03 (3×) and 1.15 and 1.11 and 1.07 and 0.94 and 1.01.

Q: And the “Posterior Putamen R:L ratio” value (dopamine transporter [1]; [7])?
A: Its value is 1.03 and 1.08 and 1.18 (2×) and 1.00 and 1.05 and 0.99 and 1.20 and 1.07 (3×) and 1.02 and 1.11 (2×) and 0.93.

Q: What about the “Putamen R:L ratio” value (dopamine transporter [1]; [7]) of the same compound?
A: Its value is 1.03 (2×) and 1.02 and 1.04 (2×) and 1.05 (2×) and 0.93 and 1.00 (3×) and 0.98 and 1.06 and 1.07 and 0.99.

Q: What about the “SBR Striatum L” value (dopamine transporter [1]; [7]) of the same compound?
A: Its value is 3.25 and 2.58 and 3.11 and 2.60 and 2.94 and 1.88 and 4.03 and 2.33 and 3.28 and 2.62 and 2.37 and 2.50 and 4.79 and 3.22 and 3.09.

Q: And the “SBR Striatum R” value (dopamine transporter [1]; [7])?
A: Its value is 3.29 and 2.65 and 3.16 and 2.74 and 2.69 and 1.91 and 4.06 and 2.56 and 3.57 and 2.70 and 2.37 and 2.62 and 4.93 and 3.23 and 3.15.

Q: And the “Striatum R:L ratio” value (dopamine transporter [1]; [7])?
A: The value was 1.01 (2×) and 1.03 (3×) and 1.02 (3×) and 1.05 (2×) and 0.92 and 1.10 and 1.09 and 1.00 (2×).

Q: And the “number of subjects: SBR + Asymmetry Abnormal, Clinical Abnormal” value (dopamine transporter [2]; [8])?
A: Its value is 54.

Q: And the “number of subjects: SBR + Asymmetry Abnormal, Clinical Normal” value (dopamine transporter [2]; [8])?
A: The value was 11.

Q: And the “number of subjects: SBR + Asymmetry Normal, Clinical Abnormal” value (dopamine transporter [2]; [8])?
A: The value was 5.

Q: And the “number of subjects: SBR + Asymmetry Normal, Clinical Normal” value (dopamine transporter [2]; [8])?
A: Its value is 34.

Q: What about the accuracy (dopamine transporter [2]; [9]) of the same compound?
A: The accuracy was 85%.

Q: What about the sensitivity (dopamine transporter [2]; [9]) of the same compound?
A: The sensitivity was 92%.

Q: What about the specificity (dopamine transporter [2]; [9]) of the same compound?
A: Its specificity is 76%.

Q: What about the SBR (dopamine transporter [3]; eighties age group) of the same compound?
A: Its SBR is “about 2.2”.

Q: What about the SBR (dopamine transporter [3]; thirties age group) of the same compound?
A: The SBR was “about 3.2”.

Q: And the “number of subjects: SBR Abnormal, Clinical Abnormal” value (dopamine transporter [4]; 104 patients, SBR only)?
A: Its value is 42.

Q: What about the “number of subjects: SBR Abnormal, Clinical Normal” value (dopamine transporter [4]; 104 patients, SBR only) of the same compound?
A: Its value is 2.

Q: And the “number of subjects: SBR Normal, Clinical Abnormal” value (dopamine transporter [4]; 104 patients, SBR only)?
A: The value was 17.

Q: And the “number of subjects: SBR Normal, Clinical Normal” value (dopamine transporter [4]; 104 patients, SBR only)?
A: The value was 43.

Q: And the accuracy (dopamine transporter [4]; [10])?
A: The accuracy was 82%.

Q: What about the sensitivity (dopamine transporter [4]; [10]) of the same compound?
A: The sensitivity was 71%.

Q: What about the specificity (dopamine transporter [4]; [10]) of the same compound?
A: Its specificity is 96%.

Q: And the “SBR Striatum left” value (dopamine transporter [5]; [11])?
A: The value was 2.88 ± 0.69 and 2.88 +/− 0.69.

Q: What about the “SBR Striatum right” value (dopamine transporter [5]; [11]) of the same compound?
A: The value was 2.88 ± 0.65 and 2.88 +/− 0.65.

Q: What about the “SBR Striatum left” value (dopamine transporter [5]; [12]) of the same compound?
A: Its value is 2.42 +/− 0.63.

Q: And the “SBR Striatum right” value (dopamine transporter [5]; [12])?
A: Its value is 2.41 +/− 0.63.
